Numbers after ± are expanded uncertainties.
Experiments:
[1] = refractive index (Na D-line) (dimensionless); wn = mass fraction of the nth substance listed; conditions: 100 kPa, Liquid, Standard Abbe refractometry
[2] = wn = mass fraction of the nth substance listed; conditions: 100 kPa, Liquid, Vibrating tube method

O=S(=O)([O-])[O-].[Mg+2] [magnesium sulfate] + O
Conditions	mass density, [2] [kg/m3]	refractive index, [1]
288.15 K, w1 = 0.2409	1274.47 ± 1.1	1.384 ± 0.002
298.15 K, w1 = 0.2768	1302.41 ± 1.1	1.3895 ± 0.0021
308.15 K, w1 = 0.2974	1325.91 ± 1.1	1.3902 ± 0.0021

Source: the NIST ThermoML archive (doi:10.1021/acs.jced.7b00378)
